Assays:
[1] = molecular target: JAK1 (recombinant purified GST-tagged catalytic domain) (Homo sapiens (Human), UniProt P23458); assay: Jak Biochemical HTRF Assay (JAK1); conditions: [ATP] 31.8 μM
How it was run: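 HTRF kinase format: compounds pre-equilibrated with recombinant GST-tagged JAK1 or JAK2 catalytic domain, then ATP started a 120 min room-temperature reaction on a common peptide substrate. Phosphopeptide detected via Eu-pY20/streptavidin-Dylight 650 after EDTA quench; percent inhibition versus log concentration fitted (4-parameter) to give IC50.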

[2] = molecular target: JAK2 (recombinant purified GST-tagged catalytic domain) (Homo sapiens (Human), UniProt O60674); assay: Jak Biochemical HTRF Assay (JAK2); conditions: [ATP] 8.5 μM
Chain of JAK2 (recombinant purified GST-tagged catalytic domain) (O60674 849-1124): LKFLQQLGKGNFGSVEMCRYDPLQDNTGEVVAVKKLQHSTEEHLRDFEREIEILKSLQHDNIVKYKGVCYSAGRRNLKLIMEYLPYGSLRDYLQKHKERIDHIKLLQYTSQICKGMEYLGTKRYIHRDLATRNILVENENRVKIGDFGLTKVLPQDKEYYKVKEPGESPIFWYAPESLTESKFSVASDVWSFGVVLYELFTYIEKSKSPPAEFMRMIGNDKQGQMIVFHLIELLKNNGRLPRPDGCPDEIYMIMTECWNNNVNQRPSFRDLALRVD

Chain of JAK1 (recombinant purified GST-tagged catalytic domain) (P23458 875-1153): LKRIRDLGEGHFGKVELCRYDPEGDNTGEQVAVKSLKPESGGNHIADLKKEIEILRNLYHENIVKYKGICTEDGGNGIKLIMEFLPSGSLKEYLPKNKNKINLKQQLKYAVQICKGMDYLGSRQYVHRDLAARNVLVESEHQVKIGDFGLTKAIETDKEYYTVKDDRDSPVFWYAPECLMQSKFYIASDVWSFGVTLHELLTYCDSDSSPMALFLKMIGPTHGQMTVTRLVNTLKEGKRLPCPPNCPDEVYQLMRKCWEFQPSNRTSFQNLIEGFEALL

SMILES | IC50 [1] | IC50 [2]
CC(C)(C)OC(=O)N1CCC(CC#N)(n2nc(Nc3cc(Cn4nccn4)cc(Cn4nccn4)c3)c3c(=O)[nH]ccc32)CC1 [Example 5-63, tert-butyl 4-(3-(3,5-bis((2H-1,2,3-triazol-2-yl)methyl)phenylamino)-4-oxo-4,5-dihydropyrazolo[4,3-c]pyridin-1-yl)-4-(cyanomethyl)piperidine-1-carboxylate] | 2.1 nM | 0.7 nM
CC(C)(C)OC(=O)N1CCC(CC#N)(n2nc(Nc3cc(Cn4ccnn4)cc(Cn4nccn4)c3)c3c(=O)[nH]ccc32)CC1 [Example 5-64, tert-butyl 4-(3-(3-((1H-1,2,3-triazol-1-yl)methyl)-5-((2H-1,2,3-triazol-2-yl)methyl)phenylamino)-4-oxo-4,5-dihydropyrazolo [4,3-c]pyridin-1-yl)-4-(cyanomethyl)piperidine-1-carboxylate] | 0.57 nM | 0.46 nM
Cc1cccc(Nc2nn(C3(CC#N)CCN(C(=O)OC(C)(C)C)CC3)c3cc[nH]c(=O)c23)c1 [Example 5-65, tert-butyl 4-(3-(m-toluidino)-4-oxo-4,5-dihydropyrazolo[4,3-c]pyridin-1-yl)-4-(cyanomethyl)piperidine-1-carboxylate] | 0.21 nM | 3.22 nM
CC(C)(C)OC(=O)N1CCC(CC#N)(n2nc(Nc3ccc4c(c3)CNC4)c3c(=O)[nH]ccc32)CC1 [Example 5-66, tert-butyl 4-(cyanomethyl)-4-(3-(isoindolin-5-ylamino)-4-oxo-4,5-dihydropyrazolo[4,3-c]pyridin-1-yl)piperidine-1-carboxylate] | 0.26 nM | 0.43 nM
CC(C)CN1Cc2cc(Nc3nn(C4(CC#N)CCN(C(=O)OC(C)(C)C)CC4)c4cc[nH]c(=O)c34)ccc2S1(=O)=O [Example 5-67] | 0.47 nM | 0.52 nM
CC(C)(C)OC(=O)N1CCC(CC#N)(n2nc(Nc3ccc4c(c3)CN(CC3CC3)S4(=O)=O)c3c(=O)[nH]ccc32)CC1 [Example 5-68, tert-butyl 4-(cyanomethyl)-4-(3-{[2-(cyclopropylmethyl)-1,1-dioxo-2,3-dihydro-1,2-benzothiazol-5-yl]amino}-4-oxo-1H,4H,5H-pyrazolo[4,3-c]pyridin-1-yl)piperidine-1-carboxylate] | 0.25 nM | 0.33 nM
COC(=O)N1CCC(CC#N)(n2nc(Nc3ccc4c(c3)CN(C)S4(=O)=O)c3c(=O)[nH]ccc32)CC1 [Example 5-70, methyl 4-(cyanomethyl)-4-[3-[(2-methyl-1,1-dioxo-2,3-dihydro-1,2-benzothiazol-5-yl)amino]-4-oxo-1H,4H,5H-pyrazolo[4,3-c]pyridin-1-yl]piperidine-1-carboxylate] | 0.07 nM | 0.58 nM
COC(=O)N1CCC(CC#N)(n2nc(Nc3ccc4c(c3)CN(C(C)(C)C)S4(=O)=O)c3c(=O)[nH]ccc32)CC1 [Example 5-71, methyl 4-{3-[(2-tert-butyl-1,1-dioxo-2,3-dihydro-1,2-benzothiazol-5-yl)amino]-4-oxo-1H,4H,5H-pyrazolo [4,3-c]pyridin-1-yl}-4-(cyanomethyl)piperidine-1-carboxylate] | 0.08 nM | 0.15 nM
CCN1Cc2cc(Nc3nn(C4(CC#N)CCN(C(=O)OC)CC4)c4cc[nH]c(=O)c34)ccc2S1(=O)=O [Example 5-72, methyl 4-{3-[(2-ethyl-1,1-dioxo-2,3-dihydro-1,2-benzothiazol-5-yl)amino]-4-oxo-1H,4H,5H-pyrazolo [4,3-c]pyridin-1-yl}-4-(cyanomethyl)piperidine-1-carboxylate] | 0.06 nM | 0.26 nM
COC(=O)N1CCC(CC#N)(n2nc(Nc3ccc4c(c3)CN(CC(C)C)S4(=O)=O)c3c(=O)[nH]ccc32)CC1 [Example 5-73, methyl 4-(cyanomethyl)-4-(3-{[2-(2-methylpropyl)-1,1-dioxo-2,3-dihydro-1,2-benzothiazol-5-yl]amino}-4-oxo-1H,4H,5H-pyrazolo [4,3-c]pyridin-1-yl) piperidine-1-carboxylate] | 0.12 nM | 0.35 nM
COC(=O)N1CCC(CC#N)(n2nc(Nc3ccc4c(c3)CN(CC3CC3)S4(=O)=O)c3c(=O)[nH]ccc32)CC1 [Example 5-74, methyl 4-(cyanomethyl)-4-(3-{[2-(cyclopropylmethyl)-1,1-dioxo-2,3-dihydro-1,2-benzothiazol-5-yl]amino}-4-oxo-1H,4H,5H-pyrazolo [4,3-c]pyridin-1-yl) piperidine-1-carboxylate] | 0.06 nM | 0.27 nM
COC(=O)N1CCC(CC#N)(n2nc(Nc3ccc4c(c3)CN(CC3CCCC3)S4(=O)=O)c3c(=O)[nH]ccc32)CC1 [Example 5-75, methyl 4-(cyanomethyl)-4-(3-{[2-(cyclopentylmethyl)-1,1-dioxo-2,3-dihydro-1,2-benzothiazol-5-yl]amino}-4-oxo-1H,4H,5H-pyrazolo [4,3-c]pyridin-1-yl) piperidine-1-carboxylate] | 0.12 nM | 0.37 nM
CC(C)(C)OC(=O)N1CCC(CC#N)(n2nc(Nc3ccc(S(=O)(=O)C(F)(F)F)cc3)c3c(=O)[nH]ccc32)CC1 [Example 5-76, tert-butyl 4-(cyanomethyl)-4-[4-oxo-3-({4-[(trifluoromethyl)sulfonyl]phenyl}amino)-4,5-dihydro-1H-pyrazolo [4,3-c]pyridin-1-yl] piperidine-1-carboxylate] | 0.9 nM | 7.89 nM
CC(C)(C)OC(=O)N1CCC(CC#N)(n2nc(Nc3ccnc(F)c3)c3c(=O)[nH]ccc32)CC1 [Example 5-78, tert-butyl 4-(cyanomethyl)-4-{3-[(2-fluoropyridin-4-yl)amino]-4-oxo-4,5-dihydro-1H-pyrazolo[4,3-c]pyridin-1-yl}piperidine-1-carboxylate] | 0.18 nM | 2.12 nM
CC(C)(C)N1Cc2cc(Nc3nn(C4(CC#N)CCCCC4)c4cc[nH]c(=O)c34)ccc2S1(=O)=O [Example 5-80, 2-(1-(3-((2-(tert-butyl)-1,1-dioxido-2,3-dihydrobenzo[d]isothiazol-5-yl)amino)-4-oxo-4,5-dihydro-1H-pyrazolo[4,3-c]pyridin-1-yl)cyclohexyl)acetonitrile] | 0.08 nM | 1.21 nM
CN1Cc2cc(Nc3nn(C4(CC#N)CCCCC4)c4cc[nH]c(=O)c34)ccc2S1(=O)=O [Example 5-81, 2-(1-(3-((2-methyl-1,1-dioxido-2,3-dihydrobenzo[d]isothiazol-5-yl)amino)-4-oxo-4,5-dihydro-1H-pyrazolo[4,3-c]pyridin-1-yl)cyclohexyl)acetonitrile] | 0.24 nM | 3.73 nM
CC(C)(C)OC(=O)N1CCC(CC#N)(n2nc(Nc3ccc4c(c3)CCS4(=O)=O)c3c(=O)[nH]ccc32)CC1 [Example 5-82, tert-butyl 4-(cyanomethyl)-4-(3-((1,1-dioxido-2,3-dihydrobenzo[d]thiophen-5-yl)amino)-4-oxo-4,5-dihydro-1H-pyrazolo[4,3-c]pyridin-1-yl)piperidine-1-carboxylate] | 0.1 nM | 0.31 nM
N#CCC1(n2nc(Nc3ccc(C(F)(F)F)cc3)c3c(=O)[nH]ccc32)CCC2(CC1)OCCO2 [Example 5-83, 2-(8-(4-oxo-3-((4-(trifluoromethyl)phenyl)amino)-4,5-dihydro-1H-pyrazolo[4,3-c]pyridin-1-yl)-1,4-dioxaspiro[4.5]decan-8-yl)acetonitrile] | 1.97 nM | 21.6 nM
CC(C)S(=O)(=O)c1ccc(Nc2nn([C@@]3(CC#N)CCCC[C@H]3F)c3cc[nH]c(=O)c23)cc1 [Example 5-87, {(1R,2R)-2-fluoro-1-[3-({4-[(1-methylethyl)sulfonyl]phenyl}amino)-4-oxo-4,5-dihydro-1H-pyrazolo[4,3-c]pyridin-1-yl]cyclohexyl}acetonitrile] | 0.04 nM | 0.05 nM
CN(C(C)(C)C)S(=O)(=O)c1ccc(Nc2nn([C@]3(CC#N)CC[C@@H](C(=O)OC(C)(C)C)OC3)c3cc[nH]c(=O)c23)cc1 [Example 5-90, (2S,5S)-tert-butyl 5-(3-((4-(N-(tert-butyl)-N-methylsulfamoyl)phenyl)amino)-4-oxo-4,5-dihydro-1H-pyrazolo[4,3-c]pyridin-1-yl)-5-(cyanomethyl)tetrahydro-2H-pyran-2-carboxylate] | 0.33 nM | 0.41 nM
CC(C)N(C)S(=O)(=O)c1ccc(Nc2nn([C@]3(CC#N)CC[C@@H](C(=O)OC(C)(C)C)OC3)c3cc[nH]c(=O)c23)cc1 [Example 5-91, (2S,5S)-tert-butyl 5-(cyanomethyl)-5-(3-((4-(N-isopropyl-N-methylsulfamoyl)phenyl)amino)-4-oxo-4,5-dihydro-1H-pyrazolo[4,3-c]pyridin-1-yl)tetrahydro-2H-pyran-2-carboxylate] | 0.14 nM | 0.23 nM
CCN(C)S(=O)(=O)c1ccc(Nc2nn([C@]3(CC#N)CC[C@@H](C(=O)OC(C)(C)C)OC3)c3cc[nH]c(=O)c23)cc1 [Example 5-92, (2S,5S)-tert-butyl 5-(cyanomethyl)-5-(3-((4-(N-ethyl-N-methylsulfamoyl)phenyl)amino)-4-oxo-4,5-dihydro-1H-pyrazolo[4,3-c]pyridin-1-yl)tetrahydro-2H-pyran-2-carboxylate] | 0.09 nM | 0.13 nM
CNS(=O)(=O)c1ccc(Nc2nn([C@]3(CC#N)CC[C@@H](C(=O)OC(C)(C)C)OC3)c3cc[nH]c(=O)c23)cc1 [Example 5-94, (2S,5S)-tert-butyl 5-(cyanomethyl)-5-(3-((4-(N-methylsulfamoyl)phenyl)amino)-4-oxo-4,5-dihydro-1H-pyrazolo[4,3-c]pyridin-1-yl)tetrahydro-2H-pyran-2-carboxylate] | 0.04 nM | 0.18 nM

Source: patent US9957264B2 (Merck Sharp & Dohme Corp., priority 2013, dated 2018)
